In ChEMBL document CHEMBL4190311, “Discovery of cycloalkyl-fused N-thiazol-2-yl-benzamides as tissue non-specific glucokinase activators: Design, synthesis, and biological evaluation” (Eur J Med Chem, 2017):
Calls of active or inactive are those of the source. The calls are words filed in the database; no cut-off is given here.

How the values were obtained:
[1] = Half life in Sprague-Dawley rat at 10 mg/kg, po by LC-MS/MS analysis; assay type: ADME, organism-based; settings: in vivo
[2] = system: Mus musculus; test: Toxicity in db/db mouse BKS.Cg-Dock7m+/+ Leprdb/J assessed as dyslipidemia by measuring effect on high density lipoprotein-cholesterol level at 15 to 60 mg/kg, po administered daily for 5 weeks; assay type: organism-based; settings: in vivo, 840 h
[3] = system: Mus musculus; test: Antidiabetic activity in dosed db/db mouse BKS.Cg-Dock7m+/+ Leprdb/J assessed as reduction in glucose AUC level at 30 to 60 mg/kg/day, po for 5 weeks measured up to 120 mins after over night fasting at fourth week during OGTT method; assay type: functional, organism-based
[4] = system: Mus musculus; test: Antidiabetic activity in db/db mouse BKS.Cg-Dock7m+/+ Leprdb/J assessed as reduction in HbA1c level at 15 to 60 mg/kg/day, po for 5 weeks; assay type: functional, organism-based
[5] = biological target: T1, Hexokinase-4 (Homo sapiens, UniProt P35557); test: Activation of recombinant human liver glucokinase 2 assessed as assessed as reduction in Km for glucose in presence of 5 mM glucose by G6PDH coupled assay
T1 sequence (P35557 whole entry): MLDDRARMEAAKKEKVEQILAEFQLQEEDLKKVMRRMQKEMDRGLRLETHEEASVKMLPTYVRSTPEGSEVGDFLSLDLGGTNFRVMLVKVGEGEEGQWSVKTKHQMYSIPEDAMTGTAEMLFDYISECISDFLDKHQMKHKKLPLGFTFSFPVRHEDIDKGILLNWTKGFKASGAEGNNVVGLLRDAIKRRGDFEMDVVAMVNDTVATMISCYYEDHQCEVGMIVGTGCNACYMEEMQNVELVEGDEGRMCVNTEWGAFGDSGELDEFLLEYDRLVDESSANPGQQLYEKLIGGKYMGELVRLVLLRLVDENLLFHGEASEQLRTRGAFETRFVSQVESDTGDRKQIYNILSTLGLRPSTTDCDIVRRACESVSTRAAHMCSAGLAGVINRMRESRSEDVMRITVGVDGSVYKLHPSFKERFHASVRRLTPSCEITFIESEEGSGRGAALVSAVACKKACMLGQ

[6] = system: INS1(832/13); test: Cytoprotection in rat INS1(832/13) cells assessed as reduction in streptozocin induced beta cells apoptosis after 20 hrs by MTT based spectrophotometric method relative to control; assay type: functional; set-up: scale not given: the % may be the effect or the level left
[7] = system: Mus musculus; test: Antidiabetic activity in po dosed db/db mouse BKS.Cg-Dock7m+/+ Leprdb/J assessed as reduction in glucose excursion administered daily for 5 weeks measured up to 120 mins after over night fasting at fourth week by OGTT method; assay type: functional, organism-based
[8] = system: Mus musculus; test: Antidiabetic activity in db/db mouse BKS.Cg-Dock7m+/+ Leprdb/J assessed as reduction in fasting plasma glucose level at 15 to 60 mg/kg/day, po for 5 weeks; assay type: functional, organism-based
[9] = biological target: T2, Hexokinase-4 (Rattus norvegicus) (UniProt P17712); test: Activation of glucokinase in rat INS1(832/13) cells assessed as increase in glucose sensitive insulin secretion at 20 uM after 2 hrs in presence of 5.5 mM glucose by AlphaLISA method relative to control; assay type: cell-based
T2 sequence (whole entry): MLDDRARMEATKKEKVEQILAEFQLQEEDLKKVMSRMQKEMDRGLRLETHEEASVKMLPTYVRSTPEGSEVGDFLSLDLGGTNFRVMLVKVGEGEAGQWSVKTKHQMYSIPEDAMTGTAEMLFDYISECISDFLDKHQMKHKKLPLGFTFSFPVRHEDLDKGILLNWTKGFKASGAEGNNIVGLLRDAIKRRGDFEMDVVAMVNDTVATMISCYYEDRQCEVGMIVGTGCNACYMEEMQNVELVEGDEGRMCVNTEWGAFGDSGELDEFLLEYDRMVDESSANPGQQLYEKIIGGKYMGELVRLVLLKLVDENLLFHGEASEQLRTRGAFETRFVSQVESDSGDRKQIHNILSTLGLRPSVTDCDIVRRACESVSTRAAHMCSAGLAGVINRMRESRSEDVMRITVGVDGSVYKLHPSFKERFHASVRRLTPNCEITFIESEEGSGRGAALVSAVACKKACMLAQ

[10] = system: Mus musculus; test: Toxicity in db/db mouse BKS.Cg-Dock7m+/+ Leprdb/J assessed as dyslipidemia by measuring effect on low density lipoprotein-cholesterol level at 15 to 60 mg/kg, po administered daily for 5 weeks; assay type: organism-based; settings: in vivo, 840 h
[11] = biological target: T1, Hexokinase-4; test: Activation of recombinant human liver glucokinase 2 assessed as […] in presence of 5 mM glucose by G6PDH coupled assay
[12] = system: Hepatocyte; test: Increase in glucose uptake in mouse primary hepatocytes assessed as glucose uptake level at 20 uM after 24 hrs by glucose oxidase method relative to control; assay type: functional
[13] = system: Mus musculus; test: Toxicity in C57BL/6J mouse assessed as decrease in fasting blood glucose level at 200 mg/kg, po administered as single dose measured over 6 hrs; assay type: organism-based; settings: in vivo
[14] = system: Mus musculus; test: Toxicity in db/db mouse BKS.Cg-Dock7m+/+ Leprdb/J assessed as dyslipidemia by measuring effect on cholesterol level at 15 to 60 mg/kg, po administered daily for 5 weeks; assay type: organism-based; settings: in vivo, 840 h
[15] = AUC (0 to infinity) in Sprague-Dawley rat at 10 mg/kg, po by LC-MS/MS analysis; assay type: ADME, organism-based; set-up: dose 10 mg/kg, time infinity, route oral; settings: in vivo
[16] = system: INS1(832/13); test: Cytoprotection in rat INS1(832/13) cells assessed as reduction in streptozocin induced beta cells apoptosis after 20 hrs by MTT based spectrophotometric method; assay type: functional, cell-based; settings: INS-1 832/13, 20 h
[17] = Tmax in Sprague-Dawley rat at 10 mg/kg, po by LC-MS/MS analysis; assay type: ADME, organism-based; settings: in vivo

COC[C@H](C)Oc1cc(Oc2ccc(C(=O)N3CCC3)cc2)cc(C(=O)Nc2nc3c(s2)CN(C(=O)OC(C)(C)C)CC3)c1
half-life [1]: 30 min | Activity [2]: Non-Toxic | Activity [3]: Active | Activity [4]: Active | EC50 [5]: 0.05 µM | Activity [6]: 161% | Activity [7]: Dose-dependent effect | Activity [8]: Active | fold change (FC) [9]: 2.69 | Activity [10]: Non-Toxic | EC50 [11]: 0.16 µM | Activity [12]: 15% | Activity [13]: Non-Toxic | Activity [14]: Non-Toxic | AUC(0-inf) [15]: 7580 ng·h/mL | EC50 [16]: 0.49 µM | Tmax [17]: 34.8 min
